Results: patent US9487490B2, “3-cyclohexenyl and cyclohexyl substituted indole and indazole compounds as RORgammaT inhibitors and uses thereof” (Merck Sharp & Dohme Corp., priority 2012, dated 2016)

Molecular target: human RORgammaT-Ligand Binding Domain (LBD) (Homo sapiens (Human), UniProt P51449)
Assay: RORγ-Ligand Binding Domain TR-FRET assay (co-activator peptide SRC1_2 recruitment)
Assay type: biochemical
Conditions: HIS-tagged RORγ-LBD 3 nM, biotinylated SRC1 LXXLL peptide 100 nM, incubated overnight at 4° C., 665 nm/615 nm signal quotient; read-out: Fret IC50
From the text: Activation of RORgammaT activity can be measured using, e.g., biochemical TR-FRET assay. In such an assay, interaction of cofactor-derived peptides with human RORgammaT-Ligand Binding Domain (LBD) can be measured.
To identify novel antagonists of RORgammaT, an assay was developed which employs the interaction of RORgammaT with its co-activator peptide SRC1_2. […] The RORγ-Ligand Binding Domain TR-FRET Assay was run according to the following protocol.
HIS-tagged RORγ-LBD protein was expressed in SF9 cells using a baculovirus expression system. The RORγ-LBD protein was purified by glutathione sepharose chromatography. Separately, SF9 cells not expressing any recombinant protein were lysed and the lysate was added to the purified RORγ-LBD at 0.25 μl lysate (from 10,000 SF9 cells)/nM purified protein. The mixture was then diluted in assay buffer (50 mM Tris pH 7.0, 50 mM KCl, 1 mM EDTA, 0.1 mM DTT) to obtain RORγ-LBD final concentration of 3 nM in 384-well assay plate.
Compounds to be tested were injected to the assay plate using Acoustic Droplet Ejection technology by Echo 550 liquid handler (Labcyte, Calif.).

Chain of human RORgammaT-Ligand Binding Domain (LBD) (P51449 269-508): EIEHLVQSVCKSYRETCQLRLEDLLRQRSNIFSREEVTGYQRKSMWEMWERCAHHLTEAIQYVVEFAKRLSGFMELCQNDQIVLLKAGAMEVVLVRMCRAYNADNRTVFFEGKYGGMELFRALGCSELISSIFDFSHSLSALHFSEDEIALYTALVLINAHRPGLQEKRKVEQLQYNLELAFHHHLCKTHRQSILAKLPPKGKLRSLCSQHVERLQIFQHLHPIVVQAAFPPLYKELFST

Structure (SMILES)	IC50 [nM]
CC1(C(=O)O)CC=C(c2nn(C(=O)c3c(Cl)cccc3C(F)(F)F)c3cccc(Cl)c23)CC1 (stereo not shown) [Example 1I, 4-(4-chloro-1-(2-chloro-6-(trifluoromethyl)benzoyl)-1H-indazol-3-yl)-1-methylcyclohex-3-enecarboxylic acid]	14
CC1(C(=O)O)CC=C(c2nn(C(=O)c3c(Cl)cccc3C3CC3)c3cccc(F)c23)CC1 (stereo not shown) [Example 1J, 4-(1-(2-chloro-6-cyclopropylbenzoyl)-4-fluoro-1H-indazol-3-yl)-1-methylcyclohex-3-enecarboxylic acid]	7
Cc1cccc(Cl)c1C(=O)n1nc(C2=CCC(C(=O)O)CC2)c2c(F)cccc21 (stereo not shown) [Example 1K, 4-(1-(2-chloro-6-methylbenzoyl)-4-fluoro-1H-indazol-3-yl)cyclo-hex-3-enecarboxylic acid]	31
Cc1cccc(Cl)c1C(=O)n1nc(C2=CCC(C(=O)O)CC2)c2ncccc21 (stereo not shown) [Example 1L, 4-(1-(2-chloro-6-methylbenzoyl)-1H-pyrazolo[4,3-b]pyridine-3-yl)cyclohex-3-enecarboxylic acid]	123
O=C(O)C1CC=C(c2nn(C(=O)c3c(Cl)cccc3C(F)(F)F)c3cc(C(=O)N4CC(F)(F)C4)ccc23)CC1 (stereo not shown) [Example 4A, 4-(1-(2-chloro-6-(trifluoromethyl)benzoyl)-6-(3,3-difluoroazetidine-1-carbonyl)-1H-indazol-3-yl)cyclohex-3-enecarboxylic acid]	5
O=C(NC1CC1)c1ccc2c(C3=CCC(C(=O)O)CC3)nn(C(=O)c3c(Cl)cccc3C(F)(F)F)c2c1 (stereo not shown) [Example 4B, 4-(1-(2-chloro-6-(trifluoromethyl)benzoyl)-6-(cyclopropylcarbamoyl)-1H-indazol-3-yl)cyclohex-3-enecarboxylic acid]	143
CN(C(=O)c1ccc2c(C3=CCC(C(=O)O)CC3)nn(C(=O)c3c(Cl)cccc3C(F)(F)F)c2c1)C1CC1 (stereo not shown) [Example 4C, 4-(1-(2-chloro-6-(trifluoromethyl)benzoyl)-6-(cyclopropyl(methyl)carbamoyl)-1H-indazol-3-yl)cyclohex-3-enecarboxylic acid]	9
O=C(O)C1CC=C(c2nn(C(=O)c3c(Cl)cccc3C(F)(F)F)c3cc(C(=O)N4CCC4)ccc23)CC1 (stereo not shown) [Example 4D, 4-(6-(azetidine-1-carbonyl)-1-(2-chloro-6-(trifluoromethyl)benzoyl)-1H-indazol-3-yl)cyclohex-3-enecarboxylic acid]	177
COC1CN(C(=O)c2ccc3c(C4=CCC(C(=O)O)CC4)nn(C(=O)c4c(Cl)cccc4C(F)(F)F)c3c2)C1 (stereo not shown) [Example 4E, 4-(1-(2-chloro-6-(trifluoromethyl)benzoyl)-6-(3-methoxyazetidine-1-carbonyl)-1H-indazol-3-yl)cyclohex-3-enecarboxylic acid]	2
O=C(O)C1CC=C(c2nn(C(=O)c3c(Cl)cccc3C(F)(F)F)c3cc(C(=O)N4CCCC4)ccc23)CC1 (stereo not shown) [Example 4F, 4-(1-(2-chloro-6-(trifluoromethyl)benzoyl)-6-(pyrrolidine-1-carbonyl)-1H-indazol-3-yl)cyclohex-3-enecarboxylic acid]	30
C[C@H]1CCCN1C(=O)c1ccc2c(C3=CCC(C(=O)O)CC3)nn(C(=O)c3c(Cl)cccc3C(F)(F)F)c2c1 (stereo partly drawn) [Example 4G, 4-(1-(2-chloro-6-(trifluoromethyl)benzoyl)-6-((S)-2-methylpyrrolidine-1-carbonyl)-1H-indazol-3-yl)cyclohex-3-enecarboxylic acid]	6
C[C@@H]1CCCN1C(=O)c1ccc2c(C3=CCC(C(=O)O)CC3)nn(C(=O)c3c(Cl)cccc3C(F)(F)F)c2c1 (stereo partly drawn) [Example 4H, 4-(1-(2-chloro-6-(trifluoromethyl)benzoyl)-6-((R)-2-methylpyrrolidine-1-carbonyl)-1H-indazol-3-yl)cyclohex-3-enecarboxylic acid]	115
CC1CN(C(=O)c2ccc3c(C4=CCC(C(=O)O)CC4)nn(C(=O)c4c(Cl)cccc4C(F)(F)F)c3c2)CCO1 (stereo not shown) [Example 4J, 4-(1-(2-chloro-6-(trifluoromethyl)benzoyl)-6-(2-methylmorpholine-4-carbonyl)-1H-indazol-3-yl)cyclohex-3-enecarboxylic acid]	24
CN(C(=O)c1ccc2c(C3=CCC(C(=O)O)CC3)nn(C(=O)c3c(Cl)cccc3C(F)(F)F)c2c1)C1CCCCC1 (stereo not shown) [Example 4K, 4-(1-(2-chloro-6-(trifluoromethyl)benzoyl)-6-(cyclohexyl(methyl)carbamoyl)-1H-indazol-3-yl)cyclohex-3-enecarboxylic acid]	94
O=C(O)C1CC=C(c2nn(C(=O)c3c(Cl)cccc3C(F)(F)F)c3cc(C(=O)N4CCOCC4)ccc23)CC1 (stereo not shown) [Example 4L, 4-(1-(2-chloro-6-(trifluoromethyl)benzoyl)-6-(morpholine-4-carbonyl)-1H-indazol-3-yl)cyclohex-3-enecarboxylic acid]	36
C[C@@H]1CN(C(=O)c2ccc3c(C4=CCC(C(=O)O)CC4)nn(C(=O)c4c(Cl)cccc4C(F)(F)F)c3c2)C[C@H](C)O1 (stereo partly drawn) [Example 4M, 4-(1-(2-chloro-6-(trifluoromethyl)benzoyl)-6-((2R,6S)-2,6-dimethylmorpholine-4-carbonyl)-1H-indazol-3-yl)cyclohex-3-enecarboxylic acid]	21
CN1CCN(C(=O)c2ccc3c(C4=CCC(C(=O)O)CC4)nn(C(=O)c4c(Cl)cccc4C(F)(F)F)c3c2)CC1=O (stereo not shown) [Example 4N, 4-(1-(2-chloro-6-(trifluoromethyl)benzoyl)-6-(4-methyl-3-oxopiperazine-1-carbonyl)-1H-indazol-3-yl)cyclohex-3-enecarboxylic acid]	3
C[C@H]1COCCN1C(=O)c1ccc2c(C3=CCC(C(=O)O)CC3)nn(C(=O)c3c(Cl)cccc3C(F)(F)F)c2c1 (stereo partly drawn) [Example 4O, 4-(1-(2-chloro-6-(trifluoromethyl)benzoyl)-6-((S)-3-methylmorpholinc-4-carbonyl)-1H-indazol-3-yl)cyclohex-3-enecarboxylic acid]	308
CN(C(=O)c1ccc2c(C3=CCC(C(=O)O)CC3)nn(C(=O)c3c(Cl)cccc3C(F)(F)F)c2c1)C1CCOCC1 (stereo not shown) [Example 4P, 4-(1-(2-chloro-6-(trifluoromethyl)benzoyl)-6-(methyl(tetrahydro-2H-pyran-4-yl)carbamoyl)-1H-indazol-3-yl)cyclohex-3-enecarboxylic acid]	41
C[C@@H]1COCCN1C(=O)c1ccc2c(C3=CCC(C(=O)O)CC3)nn(C(=O)c3c(Cl)cccc3C(F)(F)F)c2c1 (stereo partly drawn) [Example 4Q, 4-(1-(2-chloro-6-(trifluoromethyl)benzoyl)-6-((R)-3-methylmorpholine-4-carbonyl)-1H-indazol-3-yl)cyclohex-3-enecarboxylic acid]	380
C[C@H]1CN(C(=O)c2ccc3c(C4=CCC(C(=O)O)CC4)nn(C(=O)c4c(Cl)cccc4C(F)(F)F)c3c2)CCO1 (stereo partly drawn) [Example 4R, 4-(1-(2-chloro-6-(trifluoromethyl)benzoyl)-6-((S)-2-methylmorpholine-4-carbonyl)-1H-indazol-3-yl)cyclohex-3-enecarboxylic acid]	21
CN(CCO)C(=O)c1ccc2c(C3=CCC(C(=O)O)CC3)nn(C(=O)c3c(Cl)cccc3C(F)(F)F)c2c1 (stereo not shown) [Example 4S, 4-(1-(2-chloro-6-(trifluoromethyl)benzoyl)-6-((2-hydroxyethyl)(methyl)carbamoyl)-1H-indazol-3-yl)cyclohex-3-enecarboxylic acid]	40
CC(C)NC(=O)c1ccc2c(C3=CCC(C(=O)O)CC3)nn(C(=O)c3c(Cl)cccc3C(F)(F)F)c2c1 (stereo not shown) [Example 4T, 4-(1-(2-chloro-6-(trifluoromethyl)benzoyl)-6-(isopropylcarbamoyl)-1H-indazol-3-yl)cyclohex-3-enecarboxylic acid]	1120
CC(C)N(C)C(=O)c1ccc2c(C3=CCC(C(=O)O)CC3)nn(C(=O)c3c(Cl)cccc3C(F)(F)F)c2c1 (stereo not shown) [Example 4U, 4-(1-(2-chloro-6-(trifluoromethyl)benzoyl)-6-(isopropyl(methyl)carbamoyl)-1H-indazol-3-yl)cyclohex-3-enecarboxylic acid]	164
COCCN(C)C(=O)c1ccc2c(C3=CCC(C(=O)O)CC3)nn(C(=O)c3c(Cl)cccc3C(F)(F)F)c2c1 (stereo not shown) [Example 4V, 4-(1-(2-chloro-6-(trifluoromethyl)benzoyl)-6-((2-methoxyethyl)(methyl)carbamoyl)-1H-indazol-3-yl)cyclohex-3-enecarboxylic acid]	31
O=C(O)C1CC=C(c2nn(C(=O)c3c(Cl)cccc3C(F)(F)F)c3cc(C(=O)N4CC(O)C4)ccc23)CC1 (stereo not shown) [Example 4W, 4-(1-(2-chloro-6-(trifluoromethyl)benzoyl)-6-(3-hydroxyazetidine-1-carbonyl)-1H-indazol-3-yl)cyclohex-3-enecarboxylic acid]	3
O=C(O)C1CC=C(c2nn(C(=O)c3c(Cl)cccc3C(F)(F)F)c3cc(C(=O)N4CC(F)C4)ccc23)CC1 (stereo not shown) [Example 4X, 4-(1-(2-chloro-6-(trifluoromethyl)benzoyl)-6-(3-fluoroazetidine-1-carbonyl)-1H-indazol-3-yl)cyclohex-3-enecarboxylic acid]	3
O=C(O)C1CC=C(c2nn(C(=O)c3c(Cl)cccc3C(F)(F)F)c3cc(C(=O)N4CCCCC4)ccc23)CC1 (stereo not shown) [Example 4Y, 4-(1-(2-chloro-6-(trifluoromethyl)benzoyl)-6-(piperidine-1-carbonyl)-1H-indazol-3-yl)cyclohex-3-enecarboxylic acid]	159
